Our source for the IC50 values is patent US6720332B2, “Oxindole derivatives” (SmithKline Beecham Corporation, priority 2000, dated 2004).

In assay [1] the target is T1, CDK4 (Cyclin D1 and cyclin-dependent kinase 4) (Homo sapiens, UniProt P11802).
T1 construct: made in house
In words: CDK4 substrate phosphorylation assay (Rb protein). In kind it is biochemical. The settings on record: read-out: CDK4 inhibition. On the procedure:
(§1) The compounds of the present invention have valuable pharmacologic properties. Different compounds from this class are particularly effective at inhibiting CDK2 and/or CDK4 enzymes at concentrations, which range from 0.0001 to 1 μM and additionally show specificity relative to other kinases. Substrate phosphorylation assays were carried out as follows:
Cyclin D1 and cyclin-dependent kinase 4 were expressed utilizing a baculovirus expression system. The catalytic activity of CDK4 protein was assayed by measuring the phosphorylation of Rb protein. A truncated Rb protein (residues 773-928 of the native retinoblastoma protein, fused to glutathione S-transferase to facilitate purification) was used as the phosphoryl acceptor. The assay conditions were 100 mM HEPES (N-[2-hydroxyethyl]piperzine-N′-[2-ethanesulfonic acid]), pH 7.5, 0.5 μM GST-Rb protein, 1 μCi/mL [^33P]-ATP (1 nM-20 μM), 5-20 mM MgCl2, 2.5 mM EDTA, 1 mM dithiothieitol, 0.2 mg/mL bovine serum albumin, 2% (v/v) dimethyl sulfoxide (DMSO), CDK4 enzyme (5-50 nM) in a final volume of 50 μL. Reactions were incubated for time periods of 10-60 min at 30° C. and terminated by the addition of 50 μL quench (1 mM ATP/100 mM EDTA, pH 7.0). Detection of protein phosphorylation was accomplished by scintillation counting following collection of protein in 96 well plates coated with Glitathione or trapping of protein onto phosphocellulose filters. Counts detected by these methodologies minus the appropriate background were assumed to be proportional to the reaction initial rates. IC50 values were determined by measuring enzyme activity in the presence of different inhibitor concentrations (0.1 nM to 50 μM). IC50s were determined by a least squares fit to the equation CPM=Vmax*(1−([I]/(K+[I])))+nsb, or pIC50s were determined by a fit to the equation CPM=nsb+(Vmax−nsb)/(1+(x/10^x−pIC50)), where nsb are the background counts.

In a further assay the target is T2, CDK2 (Homo sapiens, UniProt P24941).
T2 construct: made in house
The assay can be described thus: CDK2 substrate phosphorylation assay (biotinylated peptide). In kind it is biochemical. The settings on record: read-out: CDK2 inhibition. The procedure: as §1
Cyclin dependent protein kinase 2 assays utilized the peptide Biotin-aminohexyl-ARRPMSPKKKA-NH2 as phosphoryl group acceptor. CDK2 was expressed utilizing a baculovirus expression system and was partially purified to comprise 20-80% of total protein, with no detectable competing reactions present. Typically, assays were performed by incubating enzyme (0.2-10 nM), with and without inhibitor, peptide substrate (1-10 nM), [g-^32P]ATP (1-20 nM), and 10-20 mM Mg^2+ for periods of time generally within the range 10-120 minutes. Reactions were terminated with 0.2-2 volumes of either 20% acetic acid or 50-100 mM EDTA buffered to pH 7 (substrate consumption <20%). The buffer employed in enzyme assay was 100 mM HEPES pH 7.5 containing 0.1 mg/mL BSA and 5% DMSO. Inhibitors were diluted in 100% DMSO prior to addition into the assay. Detection of peptide phosphorylation was accomplished by scintillation counting following either collection of peptide onto phosphocellulose filters (for reactions stopped with acetic acid), collection of peptide in wells of 96 well plates coated with Streptavidin (Pierce) (reactions were stopped with EDTA), or addition of Avidin coated Scintillant impregnated beads (Scintillation Proximity Assays from Amersham, reactions were stopped with EDTA). […] Radioactivity was determined by liquid scintillation counting.

Assay [2] deals with human tumor cells (U2OS, MDA-MB-231, SaOs-2, MDA-MB-468). The assay can be described thus: Anti-proliferation cell-based assay (BrdU incorporation). Particulars: 18 hr compound incubation, cell line not given, read-out: Anti-proliferative activity. On the procedure: Anti-Proliferation Cell-Based Assay
The anti-proliferative activity of compounds was determined measuring the rate of DNA synthesis by bromodeoxyuridine (BrdU) incorporation into cellular DNA. The amount of BrdU in cellular DNA was detected using an anti-BrdU antibody in an ELISA format to allow for rapid throughput. Log-phase growing human tumor cells either containing functional Rb (U2OS, MDA-MB-231) or lacking functional Rb protein (SaOs-2, MDA-MB-468) were plated in medium into 96-well plates (1−6×10^3 cells/100 μL medium/well) and allowed to incubate overnight […]. Compounds (concentration range of 0.046-100 μM) were diluted in medium (final DMSO (v/v) 0.8%), added to wells containing cells, and incubated for 18 hr at 37° C. BrdU (100 μM) was added and incubated for 4 hr. Cells were rinsed with PBS and DNA was denatured by addition of fixation/denaturation solution. Anti-BrdU antibody conjugated to horseradish peroxidase in 1% BSA was added for 2 hr at room temperature. Cells were washed, the chemiluminescence reagent was added, and plates were read in luminometer.
Background: Uptake of a labelled nucleoside into DNA is a usual measure of proliferation.

T1 sequence (P11802 whole entry): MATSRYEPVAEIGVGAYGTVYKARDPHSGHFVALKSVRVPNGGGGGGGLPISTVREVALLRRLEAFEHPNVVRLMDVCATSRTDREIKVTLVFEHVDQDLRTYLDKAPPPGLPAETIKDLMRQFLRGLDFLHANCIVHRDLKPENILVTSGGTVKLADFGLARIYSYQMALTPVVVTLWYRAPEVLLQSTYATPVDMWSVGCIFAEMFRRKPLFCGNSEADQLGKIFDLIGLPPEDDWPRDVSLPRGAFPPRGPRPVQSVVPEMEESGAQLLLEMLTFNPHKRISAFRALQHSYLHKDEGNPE
T1 sequence (P24385 whole entry partner): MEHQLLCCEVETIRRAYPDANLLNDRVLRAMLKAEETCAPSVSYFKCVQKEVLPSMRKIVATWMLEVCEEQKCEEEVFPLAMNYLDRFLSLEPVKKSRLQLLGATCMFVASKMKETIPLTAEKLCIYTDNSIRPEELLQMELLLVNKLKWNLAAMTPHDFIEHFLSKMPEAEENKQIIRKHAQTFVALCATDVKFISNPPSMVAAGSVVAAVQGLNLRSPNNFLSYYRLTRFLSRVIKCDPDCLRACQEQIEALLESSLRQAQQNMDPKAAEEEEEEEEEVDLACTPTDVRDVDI

Consider `CN(C)Cc1ccc(N/C=C2\C(=O)Nc3ccc4ncccc4c32)cc1` [Example 1, 1-[(Z)-(4-Dimethylaminomethylanilino)methylidene]-1,3-dihydro-2H-pyrrolo[3,2-f]quinoline-2-one], for which the results for the IC50 (in assay [1]; at CDK2; in assay [2]) were less than 100 nM, less than 1000 nM and less than 1000 nM, respectively.
On to `CC(C)CN(C)Cc1ccc(N/C=C2\C(=O)Nc3ccc4ncccc4c32)cc1` [Example 6, 1-[(Z)-(4-(N-Methyl)-2-methylpropylaminomethylanilino)methylidene]-1,3-dihydro-2H-pyrrolo[3,2-f]quinoline-2-one], for which the values for the IC50 (in assay [1]; on CDK2; in assay [2]) were less than 100 nM, less than 1000 nM and less than 100 nM, respectively.
For the molecule `O=C1Nc2ccc3ncccc3c2/C1=C/Nc1ccc(CN2CCOCC2)cc1` [Example 10, 1-[(Z)-(4-(4-morpholinyl)methylanilino)methylidene]-1,3-dihydro-2H-pyrrolo[3,2-f]quinoline-2-one], the IC50 in assay [1] is less than 100 nM; on CDK2, less than 100 nM; in assay [2], less than 1000 nM.
